Test results published in patent publication US8580977B2 (priority 2010, dated 2013).

How the values were obtained:
PP1 = conditions: literature; cited from earlier work
PP2A = conditions: literature; cited from earlier work
Du145, MCF7, and HCT-115 = test: cytotoxicity against selected human cancer cell lines; assay type: cell-based; conditions: Du145, MCF7, HCT-115
Experimental: (§1) IR spectra were measured on a Bruker EQUINOX 55/S FT-IR/NIR spectrophotometer (Ettlingen, DE). Optical rotations were determined on a Perkin-Elmer 241 instrument at the sodium D line (589 nm). High-resolution mass spectrometry (HRMS) analyses were acquired on an IonSpec HiRes MALDI FT mass spectrometer (Lake Forest, Calif.) for […] or on an Agilent 1100 series LC/MSD Trap SL for HRESIMS (Santa Clara, Calif.). NMR data were recorded on a Varian Unity Inova 400 or 500 MHz NMR spectrometer (Varian, Inc., Palo Alto, Calif.). ^1H and ^13C NMR chemical shifts were referenced to residual solvent signals: δH 7.26 ppm and […] for CDCl3. ^1H-^1H COSY, HMQC, HMBC, HETLOC, gHSQMBC, and gDQCOSY were performed using either standard Varian pulse sequences or literature pulse sequences (Uhrin et al., 1998; Williamson et al., 2000). High-performance liquid chromatography (HPLC) analysis was carried out on a Varian HPLC system equipped with ProStar 210 pumps and a photodiode detector. Mobile phases used were buffer A (H2O) and buffer B (CH3CN). Analytical and semipreparative HPLC columns used were Alltech Alltima C18 columns, 250×4.6 mm, 5 μm and 250×10 mm, 5 respectively. Cytotoxity assays and PP inhibition assays for TTN and related analogues were performed as previously described for compound TTM and related congeners (Ju et al., 2009). Medium components and all other chemical solvents and reagents were purchased from Fisher Scientific (Fairlawn, N.J.). Silica gel 60 RP-18 (230-400 mesh, EMD Chemical Inc., Gibbstown, N.J.) was used for standard benchtop column chromatography. Amberlite XAD-16 resin was purchased from Sigma.
Compounds 3-7 were subjected to PP inhibition and cytotoxicity assays with 1 as a control (Ju et al., 2009). Assays focused specifically on the inhibition of PP-1 and PP-2A (Table 4), while cytotoxicity assays exploited the use of selected human cancer cell lines Du145, MCF7, and HCT-115 (Table 5). […]

PP-1 [1] = system: T1, PP-1; test: PP inhibition assay, PP-1; assay type: biochemical; conditions: for PP-1 inhibition relative to TTN: less efficient / worse than TTN; for IC50: read-out: in vitro inhibition (IC50) against PP-1
T1 construct: other: less efficient / worse than TTN
Experimental: as §1
(§2) Compounds 3-7 were subjected to PP inhibition and cytotoxicity assays with 1 as a control (Ju et al., 2009). Assays focused specifically on the inhibition of PP-1 and PP-2A (Table 4), while cytotoxicity assays exploited the use of selected human cancer cell lines Du145, MCF7, and HCT-115 (Table 5).

PP-2A = test: PP inhibition assay, PP-2A; assay type: biochemical; conditions: for IC50: read-out: in vitro inhibition (IC50) against PP-2A
Experimental: as §1, §2

[2] = in vitro cytotoxicity assay, MCF7; assay type: cell-based; conditions: MCF7 cells; MCF7 human cancer cell line
Experimental: as §1, with “Medium components and all other chemical solvents and reagents were purchased from Fisher Scientific (Fairlawn, N.J.). Silica gel 60 RP-18 (230-400 mesh, EMD Chemical Inc., Gibbstown, N.J.) was used for standard benchtop column chromatography. Amberlite XAD-16 resin was purchased from Sigma.” left out

[3] = in vitro cytotoxicity assay, HCT-115; assay type: cell-based; conditions: HCT-115 cells; HCT-115 human cancer cell line
Experimental: as §1, with “Medium components and all other chemical solvents and reagents were purchased from Fisher Scientific (Fairlawn, N.J.). Silica gel 60 RP-18 (230-400 mesh, EMD Chemical Inc., Gibbstown, N.J.) was used for standard benchtop column chromatography. Amberlite XAD-16 resin was purchased from Sigma.” left out

[4] = in vitro cytotoxicity assay, Du145; assay type: cell-based; conditions: Du145 cells; Du145 human cancer cell line
Experimental: as §1, with “Medium components and all other chemical solvents and reagents were purchased from Fisher Scientific (Fairlawn, N.J.). Silica gel 60 RP-18 (230-400 mesh, EMD Chemical Inc., Gibbstown, N.J.) was used for standard benchtop column chromatography. Amberlite XAD-16 resin was purchased from Sigma.” left out

activated T cells = conditions: literature (Shim et al., 2002); cited from earlier work
PP-1 [5] = test: PP inhibition assay, PP-1; assay type: biochemical; conditions: PP-1 over PP-2A
Experimental: as §1, §2

Compound | IC50 (PP1) | preference for PP1 inhibition relative to PP2A (PP1) | IC50 (PP2A) | cytotoxicity (in words) (Du145, MCF7, and HCT-115) | PP-1 inhibition relative to TTN (PP-1 [1]) | IC50 (PP-1 [1]) | PP-2A inhibition relative to TTN (PP-2A) | IC50 (PP-2A) | IC50 [2] | IC50 [3] | IC50 [4] | T cell proliferation inhibited at concentrations lower than those needed for maximal inhibition by cyclosporine A (activated T cells) | PP-1 selectivity (PP-1 [5])
CO[C@H]([C@H](O)CC(=O)[C@@H](C)[C@@H](O)CC[C@@H](C)[C@@H]1O[C@]2(CC[C@@H](C)[C@H](CC[C@H](C)C(C)=O)O2)CC[C@@H]1C)[C@H](OC(=O)C[C@@H](O)C1=C(C)C(=O)OC1=O)C(C)C [TTM, tautomycin] | 22 to 32 nM | slight preference for PP1 | 22 to 32 nM | – | – | – | – | – | – | – | – | – | –
CCC(/C=C/C(=O)O)=C\CC[C@H](C)C[C@@H](C)CC[C@H](O)[C@H](C)C(=O)C[C@@H](O)[C@H](C)[C@@H](C)OC(=O)C[C@@H](O)C1=C(C)C(=O)OC1=O [TTN D-1 (4)] | – | – | – | inactive | approximately one order of magnitude | 130 ± 20 nM | about the same potency as TTN | 520 ± 50 nM | – | – | – | – | –
CCC(/C=C/C(=O)O)=C\C(O)C[C@H](C)C[C@@H](C)CC[C@H](O)[C@H](C)C(=O)C[C@@H](O)[C@H](C)[C@@H](C)OC(=O)C[C@@H](O)C1=C(C)C(=O)OC1=O (stereo partly drawn) [TTN D-2 (5)] | – | – | – | inactive | approximately three orders of magnitude worse | 9800 ± 100 nM | about two orders of magnitude worse | 44000 ± 100 nM | – | – | – | – | –
CCC(C=CC(=O)O)=CC(O)CC(C)CC(C)CCC(O)C(C)C(=O)CC(O)C(C)C(C)OC(=O)CC(O)C1=C(C)C(=O)OC1=O [TTN D-3 (6)] | – | – | – | – | approximately one order of magnitude | 210 ± 30 nM | about the same potency as TTN | 800 ± 60 nM | 11000 ± 3000 nM | 16000 ± 3000 nM | 14000 ± 3000 nM | – | –
CCC(C=CC(=O)O)=CC(=O)CC(C)CC(C)CCC(O)C(C)C(=O)CC(O)C(C)C(C)OC(=O)CC(O)C1=C(C)C(=O)OC1=O [TTN D-4 (7)] | – | – | – | – | approximately one order of magnitude | – | about the same potency as TTN | 920 ± 40 nM | 17000 ± 3000 nM | 18000 ± 3000 nM | 13000 ± 4000 nM | – | –
CC/C(=C\CC[C@H](C)C[C@@H](C)CC[C@H](O)[C@H](C)C(=O)C[C@@H](O)[C@H](C)[C@@H](C)OC(=O)C[C@@H](O)C1=C(C)C(=O)OC1=O)C(O)CC(=O)O (stereo partly shown) [TTN F-1 (3)] | – | – | – | inactive | approximately one order of magnitude | 170 ± 10 nM | about the same potency as TTN | 640 ± 80 nM | – | – | – | – | –
Tautomycetin [TTN (1), reference compound] | 1.6 nM | – | 62 nM | – | – | 15 ± 0.0008 nM | – | 400 ± 40 nM | – | – | – | 100 fold | about 27 fold
